The text below walks through data of US20230399312A1, “SUBSTITUTED PYRIMIDINES AND METHODS OF USE” (THERAVANCE BIOPHARMA R&D IP, LLC, priority 2020, published 2023).

Experiment [1] concerns the target T1, recombinant human ALK5 (TGF-βR1) protein (Homo sapiens, UniProt P36897).
T1 construct: purchased Life Technologies PR9075A
T1 sequence (P36897 34-503): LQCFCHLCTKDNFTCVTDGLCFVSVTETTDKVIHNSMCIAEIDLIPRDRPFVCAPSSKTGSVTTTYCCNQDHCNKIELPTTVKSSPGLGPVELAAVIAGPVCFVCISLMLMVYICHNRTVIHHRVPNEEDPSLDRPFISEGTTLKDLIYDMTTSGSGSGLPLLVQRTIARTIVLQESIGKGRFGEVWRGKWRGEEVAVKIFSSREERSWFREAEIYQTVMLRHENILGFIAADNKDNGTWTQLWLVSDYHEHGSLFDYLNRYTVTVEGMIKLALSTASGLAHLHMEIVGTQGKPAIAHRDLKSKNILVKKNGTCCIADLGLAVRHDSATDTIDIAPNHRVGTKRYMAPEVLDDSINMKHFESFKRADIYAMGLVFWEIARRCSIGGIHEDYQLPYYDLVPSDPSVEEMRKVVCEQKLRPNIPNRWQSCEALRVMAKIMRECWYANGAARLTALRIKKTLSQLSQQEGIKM
The experiment can be described thus: Biochemical ALK5 (TGF-βR1) assay to measure pKi (LANCE Ultra ULight kinase assay). The note with it: apparent pKi, converted from pIC50 by Cheng-Prusoff. A digest of the protocol: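 Cmpd + enzyme, 60 min RT; ATP from 125 μM (5×) stock, 60 min 37 °C; stop 12 mM EDTA/Eu anti-pThr1342 Topo2α Ab (pH 7.0 buffer); TR-FRET 665 nm. DMSO = max, SD-208 = min signal. 4-PL pIC50 → pKi (Cheng-Prusoff).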

In experiment [2] the test system is TGF-β-stimulated SMAD3 phosphorylation in BEAS-2B cells. The experiment can be described thus: Cellular ALK5 potency assay, inhibition of TGF-β stimulated pSMAD3 formation in BEAS-2B cells. The class given is cell-based. The settings on record: Homo sapiens, pSMAD3, TGF-β 10 ng/mL, read-out: BEAS2B pIC50 (converted). The method, boiled down:
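Potency is expressed as pIC50, based on dose-dependent reduction of TGF-β-induced pSMAD3 AlphaLISA signal relative to stimulated cells without compound. BEAS-2B cells received compound 1 h before a 30 min, 10 ng/mL TGF-β challenge.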

Regarding `Fc1cc(F)c(-c2ncc(C3CC3)c(Nc3ccnc(Nc4ccc(N5CCNCC5)cc4)n3)n2)cc1Cl` [Compound 540, N4-[2-(5-chloro-2,4-difluoro-phenyl)-5-cyclopropyl-pyrimidin-4-yl]-N2-(4-piperazin-1-ylphenyl)pyrimidine-2,4-diamine], the Ki in experiment [1] is 0.0398 to 0.316 nM. Besides, the IC50 in experiment [2] was 1580 to 10000 nM.

For the compound `Cc1cccc(-c2nccc(Nc3ccnc(Nc4ccc(S(=O)(=O)N5CCN(CCO)CC5)cc4)n3)n2)n1` [Compound 541, 2-[4-[4-[[4-[[2-(6-methyl-2-pyridyl)pyrimidin-4-yl]amino]pyrimidin-2-yl]amino]phenyl]sulfonylpiperazin-1-yl]ethanol], the Ki in experiment [1] is 0.0398 to 0.316 nM. For the same compound, the IC50 in experiment [2] was 25.1 to 158 nM.

As for `Cc1nc(-c2nccc(Nc3ccnc(Nc4ccc(N5CCC(N6CCN(C)CC6)CC5)cc4)n3)n2)ccc1F` [Compound 542, N4-[2-(5-fluoro-6-methyl-2-pyridyl)pyrimidin-4-yl]-N2-[4-[4-(4-methylpiperazin-1-yl)-1-piperidyl]phenyl]pyrimidine-2,4-diamine], the Ki in experiment [1] is 0.0398 to 0.316 nM. Further, the IC50 in experiment [2] was 25.1 to 158 nM.

In the case of `Cc1cccc(-c2nccc(Nc3ccnc(Nc4csc(C(=O)O[C@@H]5CCNC5)c4)n3)n2)n1` [Compound 543, [(3R)-pyrrolidin-3-yl] 4-[[4-[[2-(6-methyl-2-pyridyl)pyrimidin-4-yl]amino]pyrimidin-2-yl]amino]thiophene-2-carboxylate], the Ki in experiment [1] was 0.0398 to 0.316 nM. In experiment [2], the IC50 is 25.1 to 158 nM.

As for `Cc1cccc(-c2nccc(Nc3ccnc(Nc4csc(C(=O)O[C@H]5CCNC5)c4)n3)n2)n1` [Compound 544, [(3S)-pyrrolidin-3-yl] 4-[[4-[[2-(6-methyl-2-pyridyl)pyrimidin-4-yl]amino]pyrimidin-2-yl]amino]thiophene-2-carboxylate], the Ki in experiment [1] was 0.0398 to 0.316 nM. For the same compound, the IC50 in experiment [2] was 25.1 to 158 nM.

Take `Cc1cccc(-c2nccc(Nc3ccnc(Nc4ccc(C(=O)OCC5CNC5)nc4)n3)n2)n1` [Compound 545, azetidin-3-ylmethyl 5-((4-((2-(6-methylpyridin-2-yl)pyrimidin-4-yl)amino)pyrimidin-2-yl)amino)picolinate]: in experiment [1], the Ki is 0.0398 to 0.316 nM. Also, in experiment [2], the IC50 is 25.1 to 158 nM.

`Cc1cccc(-c2nccc(Nc3ccnc(Nc4ccc(C(=O)O[C@@H]5CCNC5)nc4)n3)n2)n1` [Compound 546, [(3R)-pyrrolidin-3-yl] 5-[[4-[[2-(6-methyl-2-pyridyl)pyrimidin-4-yl]amino]pyrimidin-2-yl]amino]pyridine-2-carboxylate]: in experiment [1], the Ki is 0.0398 to 0.316 nM. Moreover, in experiment [2], the IC50 was 25.1 to 158 nM.

`Cc1cccc(-c2nccc(Nc3ccnc(Nc4ccc(C(=O)O[C@H]5CCNC5)nc4)n3)n2)n1` [Compound 547, [(3S)-pyrrolidin-3-yl] 5-[[4-[[2-(6-methyl-2-pyridyl)pyrimidin-4-yl]amino]pyrimidin-2-yl]amino]pyridine-2-carboxylate]: the Ki in experiment [1] was 0.0398 to 0.316 nM. The IC50 in experiment [2] was 25.1 to 158 nM.

Turning to `Cc1cccc(-c2nccc(Nc3ccnc(Nc4cncc(C(=O)OCC5CNC5)c4)n3)n2)n1` [Compound 548, azetidin-3-ylmethyl 5-[[4-[[2-(6-methyl-2-pyridyl)pyrimidin-4-yl]amino]pyrimidin-2-yl]amino]pyridine-3-carboxylate], the Ki in experiment [1] is 0.398 to 3.16 nM. Further, the IC50 in experiment [2] is 25.1 to 158 nM.

For the compound `Cc1cccc(-c2nccc(Nc3ccnc(Nc4cncc(C(=O)O[C@@H]5CCNC5)c4)n3)n2)n1` [Compound 549, (R)-pyrrolidin-3-yl 5-((4-((2-(6-methylpyridin-2-yl)pyrimidin-4-yl)amino)pyrimidin-2-yl)amino)nicotinate], in experiment [1], the Ki is 0.398 to 3.16 nM. Also, the IC50 in experiment [2] was 25.1 to 158 nM.

Take `Cc1cccc(-c2nccc(Nc3ccnc(Nc4cncc(C(=O)O[C@H]5CCNC5)c4)n3)n2)n1` [Compound 550, [(3S)-pyrrolidin-3-yl] 5-[[4-[[2-(6-methyl-2-pyridyl)pyrimidin-4-yl]amino]pyrimidin-2-yl]amino]pyridine-3-carboxylate]: in experiment [1], the Ki is 0.398 to 3.16 nM. The IC50 in experiment [2] was 25.1 to 158 nM.

For `Cc1cccc(-c2nccc(Nc3ccnc(Nc4nc(C(=O)OCCN5CCNCC5)cs4)n3)n2)n1` [Compound 551, 2-piperazin-1-ylethyl 2-[[4-[[2-(6-methyl-2-pyridyl)pyrimidin-4-yl]amino]pyrimidin-2-yl]amino]thiazole-4-carboxylate], the Ki in experiment [1] was 0.398 to 3.16 nM. Further, the IC50 in experiment [2] is 200 to 1260 nM.

Take `Cc1cccc(-c2nccc(Nc3ccnc(Nc4ccc(C(=O)OCCN5CCNCC5)nc4)n3)n2)n1` [Compound 552, 2-piperazin-1-ylethyl 5-[[4-[[2-(6-methyl-2-pyridyl)pyrimidin-4-yl]amino]pyrimidin-2-yl]amino]pyridine-2-carboxylate]: in experiment [1], the Ki is 0.0398 to 0.316 nM. For the same compound, the IC50 in experiment [2] is 25.1 to 158 nM.

Regarding `Cc1cccc(-c2nccc(Nc3ccnc(Nc4cccc(C(=O)OCCN5CCNCC5)c4)n3)n2)n1` [Compound 553, 2-piperazin-1-ylethyl 3-[[4-[[2-(6-methyl-2-pyridyl)pyrimidin-4-yl]amino]pyrimidin-2-yl]amino]benzoate], the Ki in experiment [1] was 0.398 to 3.16 nM. Further, the IC50 in experiment [2] was 25.1 to 158 nM.

Take `Cc1cccc(-c2nccc(Nc3ccnc(Nc4csc(C(=O)OCCN5CCNCC5)c4)n3)n2)n1` [Compound 554, 2-piperazin-1-ylethyl 4-[[4-[[2-(6-methyl-2-pyridyl)pyrimidin-4-yl]amino]pyrimidin-2-yl]amino]thiophene-2-carboxylate]: the Ki in experiment [1] is 0.0398 to 0.316 nM. In addition, in experiment [2], the IC50 is 25.1 to 158 nM.

On to `Fc1cc(F)c(-c2nccc(Nc3ccnc(Nc4ccc(N5CCNCC5)cc4)n3)n2)cc1Cl` [Compound 556, N4-(2-(5-chloro-2,4-difluorophenyl)pyrimidin-4-yl)-N2-(4-(piperazin-1-yl)phenyl)pyrimidine-2,4-diamine], for which the Ki in experiment [1] was 0.0398 to 0.316 nM. Also, the IC50 in experiment [2] is 25.1 to 158 nM.

In the case of `Cc1cccc(-c2nccc(Nc3ccnc(Nc4ccc(C(=O)OCC56CNCC5C6)nc4)n3)n2)n1` (stereo not drawn) [Compound 557, 3-azabicyclo[3.1.0]hexan-1-ylmethyl 5-[[4-[[2-(6-methyl-2-pyridyl)pyrimidin-4-yl]amino]pyrimidin-2-yl]amino]pyridine-2-carboxylate], the Ki in experiment [1] is 0.0398 to 0.316 nM. For the same compound, in experiment [2], the IC50 is 200 to 1260 nM.

In the case of `Cc1cccc(-c2nccc(Nc3ccnc(Nc4ccc(C(=O)OCCC5CCNCC5)nc4)n3)n2)n1` [Compound 558, 2-(4-piperidyl)ethyl 5-[[4-[[2-(6-methyl-2-pyridyl)pyrimidin-4-yl]amino]pyrimidin-2-yl]amino]pyridine-2-carboxylate], in experiment [1], the Ki is 0.0398 to 0.316 nM. Also, the IC50 in experiment [2] was 25.1 to 158 nM.

For `Cc1cccc(-c2nccc(Nc3ccnc(Nc4csc(C(=O)OCCNC5CNC5)c4)n3)n2)n1` [Compound 560, 2-(azetidin-3-ylamino)ethyl 4-[[4-[[2-(6-methyl-2-pyridyl)pyrimidin-4-yl]amino]pyrimidin-2-yl]amino]thiophene-2-carboxylate], the Ki in experiment [1] is 0.0398 to 0.316 nM. Moreover, the IC50 in experiment [2] was 25.1 to 158 nM.

As for `Cc1cccc(-c2nccc(Nc3ccnc(Nc4ccc(C(=O)OC5CCNCC5)nc4)n3)n2)n1` [Compound 561, 4-piperidyl 5-[[4-[[2-(6-methyl-2-pyridyl)pyrimidin-4-yl]amino]pyrimidin-2-yl]amino]pyridine-2-carboxylate], the Ki in experiment [1] is 0.0398 to 0.316 nM. The IC50 in experiment [2] is 25.1 to 158 nM.

On to `Cc1cccc(-c2nccc(Nc3ccnc(Nc4ccc(C(=O)O[C@H](C)C5CCNCC5)nc4)n3)n2)n1` [Compound 562, [(1R)-1-(4-piperidyl)ethyl] 5-[[4-[[2-(6-methyl-2-pyridyl)pyrimidin-4-yl]amino]pyrimidin-2-yl]amino]pyridine-2-carboxylate], for which the Ki in experiment [1] is 0.0398 to 0.316 nM. Besides, the IC50 in experiment [2] is 200 to 1260 nM.

As for `Cc1cccc(-c2nccc(Nc3ccnc(Nc4csc(C(=O)OC[C@H]5CC[C@@H](N)CC5)c4)n3)n2)n1` [Compound 563, (4-aminocyclohexyl)methyl 4-[[4-[[2-(6-methyl-2-pyridyl)pyrimidin-4-yl]amino]pyrimidin-2-yl]amino]thiophene-2-carboxylate], in experiment [1], the Ki is 0.0398 to 0.316 nM. Further, in experiment [2], the IC50 was 200 to 1260 nM.

On to `Cc1cccc(-c2nccc(Nc3ccnc(Nc4ccc(C(=O)OCC5CNC5)cn4)n3)n2)n1` [Compound 564, azetidin-3-ylmethyl 6-[[4-[[2-(6-methyl-2-pyridyl)pyrimidin-4-yl]amino]pyrimidin-2-yl]amino]pyridine-3-carboxylate], for which, in experiment [1], the Ki is 3.98 to 31.6 nM. Also, the IC50 in experiment [2] is 200 to 1260 nM.

Turning to `Cc1cccc(-c2nccc(Nc3ccnc(Nc4cncc(CN5CC(C(=O)OC6CCNCC6)C5)c4)n3)n2)n1` [Compound 565, 4-piperidyl 1-[[5-[[4-[[2-(6-methyl-2-pyridyl)pyrimidin-4-yl]amino]pyrimidin-2-yl]amino]-3-pyridyl]methyl]azetidine-3-carboxylate], the Ki in experiment [1] was 0.0398 to 0.316 nM. In experiment [2], the IC50 was 25.1 to 158 nM.
